From US10865216B2, “Tricyclic Gyrase inhibitors” (MERCK SHARP & DOHME CORP., priority 2012, dated 2020)
≈ marks a conversion by molar mass, not a printed value. Read-outs that look alike come from different tables or passages of the source.

Key:
S. aureus ATCC 13709 = test: MIC, S. aureus ATCC 13709; assay type: cell-based; conditions: for MIC: Staphylococcus aureus
E. coli ATCC 25922 = test: MIC, E. coli ATCC 25922; assay type: cell-based; conditions: for MIC: Escherichia coli
[1] = ATCC13709, S. aureus, Alamar Blue read after overnight incubation at 35° C., read-out: MIC Sa
[2] = ATCC25922, E. coli, Alamar Blue read after overnight incubation at 35° C., read-out: MIC Ec
[3] = S. aureus, Alamar Blue read after overnight incubation at 35° C.
[4] = E. coli, Alamar Blue read after overnight incubation at 35° C.

| MIC Sa (S. aureus ATCC 13709; Table 18, Sa) [µg/mL] | MIC Ec (E. coli ATCC 25922; Table 18, Ec) [µg/mL] | MIC (S. aureus ATCC 13709; [1]) [µg/mL] | MIC (E. coli ATCC 25922; [2]) [µg/mL] | Structure (SMILES) | further results |
| --- | --- | --- | --- | --- | --- |
| ≤ 0.5 | 1 (≈ 1.99 µM) | – | – | CNc1cc(F)cc2c1[nH]c1nc(Nc3cnc4c(c3)nnn4C(C)C)nc(N3C[C@H]4C[C@@H]3C[C@H]4N)c12 [Compound 10.43] | – |
| ≤ 0.5 | ≤ 0.5 | – | – | CNc1cc(F)cc2c1[nH]c1nc(Oc3cnc4c(F)cnn4c3)nc(N3C[C@H]4C[C@@H]3C[C@H]4N)c12 [Compound 10.35] | – |
| – | – | 0.5 (≈ 1.27 µM) | 1 (≈ 2.55 µM) | CNc1cccc2c1[nH]c1nc(Oc3cncc(F)c3)cc(N3CC[C@@H](N)C3)c12 [Compound 3.6] | – |
| – | – | ≤ 0.5 | ≤ 0.5 | CNc1cccc2c1[nH]c1nc(Oc3cnc4cccnc4c3)cc(N3CC(N)C4(CC4)C3)c12 (stereo not drawn) [Compound 3.52] | – |
| ≤ 0.5 | 1 (≈ 2.09 µM) | – | – | CNc1cc(F)cc2c1[nH]c1nc(Oc3cnc(C(C)O)nc3)nc(N3CC4(CC[C@]4(C)N)C3)c12 (stereo partly drawn) [Compound 10.74] | – |
| – | – | 8 (≈ 18.5 µM) | 32 (≈ 74 µM) | CNc1cccc2c1[nH]c1nc(Oc3cncc(F)c3)cc(N3C[C@@H](NC)C4(CC4)C3)c12 [Compound 3.51] | – |
| – | – | ≤ 0.5 | 1 (≈ 2.2 µM) | CNc1cccc2c1[nH]c1nc(Sc3cnc4nccnc4c3)nc(N3CC4C(N)C4C3)c12 (stereo not drawn) [Compound 1.16] | – |
| ≤ 0.5 | 0.5 (≈ 1.01 µM) | – | – | CNc1cc(F)c(F)c2c1[nH]c1nc(Oc3cnc(C(C)O)nc3)nc(N3CC4(CC[C@]4(C)N)C3)c12 (stereo partly drawn) [Compound 10.81] | – |
| – | – | – | – | CNc1cc(F)cc2c1[nH]c1nc(Oc3cnc(N)nc3)nc(N3CCC4(CC4N)C3)c12 (stereo not drawn) [Compound 4.173] | MIC Sa (S. aureus ATCC 13709; [3]): ≤0.5 µg/mL; MIC Ec (E. coli ATCC 25922; [4]): 1 µg/mL (≈ 2.3 µM) |
| – | – | – | – | CCc1ncc(Oc2nc(N3CCC4(CC4N)C3)c3c(n2)[nH]c2c(NC)cc(F)cc23)cn1 (stereo not drawn) [Compound 4.263] | MIC Sa (S. aureus ATCC 13709; [3]): ≤0.5 µg/mL; MIC Ec (E. coli ATCC 25922; [4]): ≤0.5 µg/mL |
| 4 (≈ 9.25 µM) | 16 (≈ 37 µM) | – | – | CNc1cc(F)cc2c1[nH]c1nc(NCc3cccnc3)nc(N3C[C@H]4C[C@@H]3C[C@H]4N)c12 [Compound 10.51] | – |
| – | – | – | – | CCc1ncc(Oc2nc(N3CCC(N)C3)c3c(n2)[nH]c2c(NC)cc(F)cc23)cn1 (stereo not drawn) [Compound 4.262] | MIC Sa (S. aureus ATCC 13709; [3]): ≤0.5 µg/mL; MIC Ec (E. coli ATCC 25922; [4]): ≤0.5 µg/mL |
| – | – | – | – | CNc1cc(F)cc2c1[nH]c1nc(Oc3cnc(-c4nn[nH]n4)nc3)nc(N3CC[C@@H](N)C3)c12 [Compound 4.224] | MIC Sa (S. aureus ATCC 13709; [3]): 1 µg/mL (≈ 2.16 µM); MIC Ec (E. coli ATCC 25922; [4]): >16 µg/mL |
| – | – | 1 (≈ 1.81 µM) | > 32 | CNc1cccc2c1[nH]c1nc(Sc3cnc4cccnc4c3)nc(N3CCC(C(O)c4cccs4)CC3)c12 (stereo not drawn) [Compound 1.70] | – |
| – | – | ≤ 0.5 | 1 (≈ 2.01 µM) | CNc1ccc(C)c2c1[nH]c1nc(Sc3cnc4ccc[n+]([O-])c4c3)nc(N3CC(N)C4(CC4)C3)c12 (stereo not drawn) [Compound 1.72] | – |
| – | – | 0.5 (≈ 1.1 µM) | 2 (≈ 4.38 µM) | CNc1cccc2c1[nH]c1nc(Sc3cnc4cccnc4c3)nc(N3C[C@@H](N)C[C@H]3C)c12 [Compound 1.60] | – |
| – | – | – | – | CNc1cc(F)cc2c1[nH]c1nc(Oc3cnc(C)nc3)nc(-c3cn[nH]c3)c12 [Compound 4.418] | MIC Sa (S. aureus ATCC 13709; [3]): ≤0.5 µg/mL; MIC Ec (E. coli ATCC 25922; [4]): 1 µg/mL (≈ 2.56 µM) |
| ≤ 0.5 | > 16 | – | – | CNc1cc(F)cc2c1[nH]c1nc(Oc3cnc4c(c3)C(=O)N(C)C4O)nc(N3C[C@H]4C[C@@H]3C[C@H]4N)c12 (stereo partly drawn) [Compound 10.108] | – |
| – | – | – | – | CCc1ncc(Oc2nc(N3CC(N)C4(CC4)C3)c3c(n2)[nH]c2c(NC)cc(F)cc23)cn1 (stereo not drawn) [Compound 4.259] | MIC Sa (S. aureus ATCC 13709; [3]): ≤0.5 µg/mL; MIC Ec (E. coli ATCC 25922; [4]): ≤0.5 µg/mL |
| – | – | – | – | CNc1cc(F)cc2c1[nH]c1nc(Oc3cnc(C)nc3)nc(N3CCC(N)(C(F)(F)F)C3)c12 (stereo not drawn) | MIC (S. aureus ATCC 13709; ATCC13709, Table 16, new R4 substituents, read-out: SA MIC): ≤ 0.5 µg/mL; MIC (E. coli ATCC 25922; ATCC25922, Table 16, new R4 substituents, EC8 not defined, read-out: EC8 MIC): 1 µg/mL (≈ 2.1 µM) |
| ≤ 0.5 | ≤ 0.5 | – | – | CNc1cc(F)cc2c1[nH]c1nc(Sc3nc4cccnc4[nH]3)nc(N3C[C@H]4C[C@@H]3C[C@H]4N)c12 [Compound 10.38] | – |
